{"source": "ChEMBL document CHEMBL1156746", "about": "“New small molecule inhibitors of hepatitis C virus” (Bioorg Med Chem Lett, 2009)", "key": {"Hepatitis C virus [1]": {"tested_on": "Hepatitis C virus", "test": "Antiviral activity against HCV2a J6/JFH1 infected in Huh7-5 cells assessed as inhibition of core protein dimerization by RT PCR", "type": "functional, organism-based, Hepacivirus hominis, subtype 2a J6/JFH1"}, "[2]": {"test": "Cytotoxicity against human Huh7.5 cells", "type": "cell-based, Huh-7"}, "Hepatitis C virus [3]": {"tested_on": "Hepatitis C virus", "test": "Antiviral activity against HCV2a J6/JFH1 infected in Huh7-5 cells at early T1 stage assessed as inhibition of core protein dimerization by RT PCR", "type": "functional, organism-based, Hepacivirus hominis", "conditions": "subtype 2a J6/JFH1, Huh7.5; call rule not given here"}, "Hepatitis C virus [4]": {"tested_on": "Hepatitis C virus", "test": "Antiviral activity against HCV2a J6/JFH1 infected in Huh7-5 cells at late T2 stage assessed as inhibition of core protein dimerization by RT PCR", "type": "functional, organism-based, Hepacivirus hominis", "conditions": "subtype 2a J6/JFH1, Huh7.5"}, "[5]": {"conditions": "Hepatitis C virus, subtype 2a J6/JFH1, Huh7.5, read-out: IC50"}}, "data": [{"molecule": "COc1ccc2c(O[C@@H]3C[C@H]4C(=O)N[C@]5(C(=O)O)C[C@H]5/C=C\\CCCCC[C@H](NC(=O)OC5CCCC5)C(=O)N4C3)cc(-c3csc(NC(C)C)n3)nc2c1", "note": "[CILUPREVIR]", "values": [{"measurement": "IC50", "setting": "Hepatitis C virus [1]; huh7-5", "value": "Not Active"}, {"measurement": "CC50", "setting": "[2]; huh-7", "value": 5.3, "unit": "µM"}, {"measurement": "EC50", "setting": "Hepatitis C virus [3]", "value": 0.072, "unit": "µM"}, {"measurement": "EC50", "setting": "Hepatitis C virus [4]", "value": 0.071, "unit": "µM"}]}, {"molecule": "C=CCN1c2ccc(OC)cc2[C@]23CCC(=O)N(Cc4cc(OC)c(OC)c(OC)c4)C2=NC(C(=O)OC)=C(C(=O)OC)C13", "note": "(mixture of isomers)", "values": [{"measurement": "IC50", "setting": "Hepatitis C virus [1]; [5]", "value": 2, "unit": "µM"}, {"measurement": "CC50", "setting": "[2]; Huh7.5 cells", "value": 5.3, "unit": "µM"}, {"measurement": "EC50", "setting": "Hepatitis C virus [3]", "value": 3.8, "unit": "µM"}, {"measurement": "EC50", "setting": "Hepatitis C virus [4]", "value": 3, "unit": "µM"}]}, {"molecule": "CC#CCN1c2ccc(OC)cc2[C@]23CCC(=O)N(CCOC)C2=NC(C(=O)OC)=C(C(=O)OC)C13", "note": "(mixture of isomers)", "values": [{"measurement": "IC50", "setting": "Hepatitis C virus [1]; [5]", "value": 2, "unit": "µM"}, {"measurement": "CC50", "setting": "[2]; Huh7.5 cells", "value": "> 320", "unit": "µM"}, {"measurement": "EC50", "setting": "Hepatitis C virus [3]", "value": 4.9, "unit": "µM"}, {"measurement": "EC50", "setting": "Hepatitis C virus [4]", "value": 0.7, "unit": "µM"}]}, {"molecule": "C=CCN1c2ccc(OC)cc2[C@]23CCC(=O)N(Cc4ccccc4)C2=NC(C(=O)OC)=C(C(=O)OC)C13", "note": "(mixture of isomers)", "values": [{"measurement": "IC50", "setting": "Hepatitis C virus [1]; [5]", "value": 1.4, "unit": "µM"}, {"measurement": "CC50", "setting": "[2]; Huh7.5 cells", "value": 127, "unit": "µM"}, {"measurement": "EC50", "setting": "Hepatitis C virus [3]", "value": 2.3, "unit": "µM"}, {"measurement": "EC50", "setting": "Hepatitis C virus [4]", "value": 3.2, "unit": "µM"}]}, {"molecule": "COC(=O)C1=C(C(=O)OC)C2N(C)c3ccc(OC)cc3[C@@]23C[C@@H](C(=O)OC)N(C(=O)CC(C)C)C3=N1", "note": "(mixture of isomers)", "values": [{"measurement": "IC50", "setting": "Hepatitis C virus [1]; [5]", "value": 9.3, "unit": "µM"}, {"measurement": "CC50", "setting": "[2]; Huh7.5 cells", "value": "> 320", "unit": "µM"}, {"measurement": "EC50", "setting": "Hepatitis C virus [3]", "value": 14.8, "unit": "µM"}, {"measurement": "EC50", "setting": "Hepatitis C virus [4]", "value": 22.2, "unit": "µM"}]}]}
